Bridge positions count the residues as written; N and C are the ends. Square brackets hold non-standard residues; d marks the D form. Ends that are not written are not given here. Peptide text beside a SMILES is read from it. 2Nal = N[C@@H](Cc1ccc2ccccc2c1)C(=O)O; Lys(iPr) = CC(C)NCCCC[C@H](N)C(=O)O; Cit = NC(=O)NCCC[C@H](N)C(=O)O
Legend:
[1] = biological target: T1, CXCR4 (Homo sapiens, UniProt P61073); experiment: Three parallel CXCR4 competitive binding assays (FITC-CVX15, FITC-DV1, 12G5) compared; parameters: expressed in transfected cells; host or cells: CHO (CHO-CXCR4, G418-selected); settings: for difference of IC50 values between the three binding systems: Type 1, relative to the minimum values
T1 sequence (P61073 whole entry): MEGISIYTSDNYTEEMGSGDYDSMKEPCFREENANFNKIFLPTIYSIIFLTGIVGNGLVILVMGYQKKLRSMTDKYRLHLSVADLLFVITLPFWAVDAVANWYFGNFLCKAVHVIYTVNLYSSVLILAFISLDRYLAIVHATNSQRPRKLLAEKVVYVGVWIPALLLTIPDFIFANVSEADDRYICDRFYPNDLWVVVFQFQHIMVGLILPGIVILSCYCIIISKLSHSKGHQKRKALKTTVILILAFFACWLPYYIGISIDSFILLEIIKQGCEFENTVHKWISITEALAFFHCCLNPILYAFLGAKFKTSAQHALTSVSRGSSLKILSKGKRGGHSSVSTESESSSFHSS
Procedure: (§1) Gradient concentrations of CXCR4 ligands were prepared with 1% BSA/PBS. CHO-CXCR4 cells were cultured and diluted into 5 × 10^5 cells/mL in 0.5% BSA/PBS. One hundred microliters of above cell solutions were added to each well of a 96-well plate and washed twice with 0.5% BSA/PBS. Cells were then incubated with 100 μL primary 12G5 Ab (1:2000, mouse anti-human CD184 antibody, BD Biosciences, CA, USA) in 0.5% BSA/PBS except for negative control group and gradient concentrations of CXCR4 ligands for 40 min on a shaker at 4 °C.

[2] = biological target: T1, CXCR4; experiment: cell-based
[3] = biological target: T1, CXCR4; experiment: FITC-CVX15-based competitive binding assay on CHO-CXCR4 cells; parameters: expressed in transfected cells; host or cells: CHO (CHO-CXCR4, G418-selected)
[4] = biological target: T1, CXCR4; experiment: 12G5 antibody-based competitive binding assay on CHO-CXCR4 cells; parameters: expressed in transfected cells; host or cells: CHO (CHO-CXCR4, G418-selected)
Procedure: as §1

[5] = biological target: CXC-type chemokine receptor 4 (CXCR4) (UniProt P61073); experiment: competitive binding on cells, fluorescence by microplate reader; FITC-DV1-based: CHO-CXCR4 cells, 1 μM FITC-DV1 with gradient concentrations of ligand in 1% BSA/PBS, 50 min, 4 °C, dark, washed twice; excitation 485 nm, emission 535 nm
Chain of CXC-type chemokine receptor 4 (CXCR4) (UniProt P61073) (P61073 whole entry): as above

[6] = biological target: CXC-type chemokine receptor 4 (CXCR4) (UniProt P61073); experiment: competitive binding on cells, fluorescence by microplate reader; FITC-CVX15-based: CHO-CXCR4 cells, 400 nM FITC-CVX15 with gradient concentrations of ligand in 1% BSA/PBS, 50 min, 4 °C, dark, washed twice; excitation 485 nm, emission 535 nm
[7] = biological target: CXC-type chemokine receptor 4 (CXCR4) (UniProt P61073); experiment: competitive binding on cells, fluorescence by microplate reader; 12G5-based: CHO-CXCR4 cells, antibody 12G5 (250 ng/mL; 1:2000) with gradient concentrations of ligand in 0.5% BSA/PBS, 40 min, 4 °C; FITC-conjugated goat anti-mouse IgG 30 min; excitation 485 nm, emission 535 nm
[8] = biological target: CXC-type chemokine receptor 4 (CXCR4) (UniProt P61073); experiment: saturation binding on cells, fluorescence by microplate reader
[9] = biological target: T2, CXC-type chemokine receptor 4 (CXCR4) (UniProt P61073 1-352); experiment: competitive binding on cells, fluorescence by microplate reader; FITC-DV1-based: CHO-CXCR4 cells, 1 μM FITC-DV1 with gradient concentrations of ligand in 1% BSA/PBS, 50 min, 4 °C, dark, washed twice; excitation 485 nm, emission 535 nm; settings: one partner purified
T2 construct: also called CD184; CHO-CXCR4
T2 sequence (P61073 whole entry): as above

[10] = biological target: T2, CXC-type chemokine receptor 4 (CXCR4); experiment: competitive binding on cells, fluorescence by microplate reader; FITC-CVX15-based: CHO-CXCR4 cells, 400 nM FITC-CVX15 with gradient concentrations of ligand in 1% BSA/PBS, 50 min, 4 °C, dark, washed twice; excitation 485 nm, emission 535 nm; settings: one partner purified
[11] = biological target: T2, CXC-type chemokine receptor 4 (CXCR4); experiment: competitive binding on cells, fluorescence by microplate reader; 12G5-based: CHO-CXCR4 cells, antibody 12G5 (250 ng/mL; 1:2000) with gradient concentrations of ligand in 0.5% BSA/PBS, 40 min, 4 °C; FITC-conjugated goat anti-mouse IgG 30 min; excitation 485 nm, emission 535 nm; settings: one partner purified

N=C(N)NCCC[C@@H]1NC(=O)[C@@H]2CSSC[C@H](NC(=O)[C@H](Cc3ccc4ccccc4c3)NC(=O)[C@H](CCCNC(=N)N)NC(=O)[C@H](CCCNC(=N)N)NC(=O)[C@H]3CCCN3C(=O)CNC1=O)C(=O)N[C@@H](Cc1ccc(O)cc1)C(=O)N[C@@H](CCC(N)=O)C(=O)N[C@@H](CCCCN)C(=O)N1CCC[C@@H]1C(=O)N1CCC[C@H]1C(=O)N[C@@H](Cc1ccc(O)cc1)C(=O)N[C@@H](CCCNC(=N)N)C(=O)N[C@@H](CCCNC(N)=O)C(=O)N2 [CVX15] (cyclo(RR[2Nal]CYQK[dP]PYR[Cit]CRG[dP]); disulfide 4-13)
difference of IC50 values between the three binding systems [1]: less than two folds

CC(C)C[C@@H](N)C(=O)NCC(=O)N[C@H](C)C(=O)N[C@H](CO)C(=O)N[C@H](Cc1c[nH]c2ccccc12)C(=O)N[C@H](Cc1c[nH]cn1)C(=O)N[C@H](CCCNC(=N)N)C(=O)N1CCC[C@@H]1C(=O)N[C@H](CC(=O)O)C(=O)N[C@H](CCCCN)C(=O)N[C@H](CS)C(=O)N[C@H](CS)C(=O)N[C@H](CC(C)C)C(=O)NCC(=O)N[C@H](Cc1ccc(O)cc1)C(=O)N[C@H](CCC(N)=O)C(=O)N[C@H](CCCCN)C(=O)N[C@H](CCCNC(=N)N)C(=O)N1CCC[C@@H]1C(=O)N[C@H](CC(C)C)C(=O)N1CCC[C@@H]1C(N)=O [DV1] (H-[dL]G[dA][dS][dW][dH][dR][dP][dD][dK][dC][dC][dL]G[dY][dQ][dK][dR][dP][dL][dP]-NH2)
difference of IC50 values between the three binding systems [1]: less than two folds

CC(C)NCCCC[C@H](NC(=O)[C@H]1CCC(=O)N[C@@H](Cc2ccccc2)C(=O)N[C@@H](Cc2ccc(O)cc2)C(=O)N[C@@H](CCCCNC(C)C)C(=O)N[C@H](CCCNC(=N)N)C(=O)N[C@@H](Cc2ccc3ccccc3c2)C(=O)NCC(=O)N1)C(N)=O [LY2510924] (FY[Lys(iPr)][dR][2Nal]G[dE][Lys(iPr)]-NH2; lactam N-7)
IC50 from 12G5-based assay versus IC50 from FITC-CVX15 and FITC-DV1 assays ([1]; Type 3): over two-fold higher

CC(C)C[C@H](NC(=O)[C@H](CS)NC(=O)[C@H](CS)NC(=O)[C@H](CCCCN)NC(=O)[C@H](CC(=O)O)NC(=O)[C@@H]1CCCN1C(=O)[C@H](CCCNC(=N)N)NC(=O)[C@H](Cc1c[nH]cn1)NC(=O)[C@H](Cc1c[nH]c2ccccc12)NC(=O)[C@H](CO)NC(=O)[C@H](C)NC(=O)CNC(=O)[C@@H](N)CC(C)C)C(=O)NCC(=O)N[C@@H](Cc1ccc(O)cc1)C(=O)N[C@@H](CCC(N)=O)C(=O)N[C@@H](CCCCN)C(=O)N[C@@H](CCCNC(=N)N)C(=O)N1CCC[C@H]1C(=O)N[C@@H](CC(C)C)C(=O)N1CCC[C@H]1C(=O)O [V1] (H-LGASWHRPDKCCLGYQKRPLP-OH)
IC50 [2]: 676 nM | IC50 [3]: 687 nM | IC50 [4]: 712 nM | difference of IC50 values between the three binding systems [1]: less than two folds

CVX15 (peptide)
IC50 [5]: 6.8 nM | IC50 [6]: 6.2 nM | IC50 [7]: 6 nM

FITC-CVX15 (peptide)
concentration at which the fluorescent signal reached a plateau [8]: 400 nM

[dL]G[dA][dS][dW][dH][dR][dP][dD][dK][dC][dC][dL]G[dY][dQ][dK][dR][dP][dL][dP] (cysteine pairing not given here; also: dimer (linkage not given here)) [DV1 dimer]
IC50 [9]: 25.6 nM | IC50 [10]: 29.4 nM | IC50 [11]: 67 nM

— publication PMC6720714, “Structural and Biological Characterizations of Novel High-Affinity Fluorescent Probes with Overlapped and Distinctive Binding Regions on CXCR4” (Molecules, 2019)
